Experimental data published in US20130012432A1, “Peptides for Treatment of Obesity” (Novo Nordisk A/S, priority 2010, published 2013).
In brackets after ≈: the same amount, converted by molar mass. Positions of bridges follow the written chain, without caps; N, C: chain ends. Non-standard residues stand in square brackets, D forms with d. Residues, ends and D or L forms follow the SMILES beside them. Groups on a side chain read outwards from the residue. *: point of attachment. Palmitoyl(16-(5-tetrazolyl)) = O=C(CCCCCCCCCCCCCCCc1nnn[nH]1)*; Lys(CH2CO2H)2 = N[C@@H](CCCCN(CC(=O)O)CC(=O)O)C(=O)O; C16 diacid = O=C(O)CCCCCCCCCCCCCCC(=O)*; Orn = NCCC[C@H](N)C(=O)O; Dab = NCC[C@H](N)C(=O)O; Dap = NC[C@H](N)C(=O)O; AEEA = NCCOCCOCC(=O)O

Assay: physchem
Protocol: From a stock solution in vehicle, either H2O or 10 mM phosphate, containing 1 mg (as weighed) compound per ml, 8-11 aliquots are withdrawn and pH-adjusted individually with HCl/NaOH, to cover the whole pH range.

| Compound | solubility (pH 6.4, Solubility Conc.) | solubility (pH 6.5, Solubility Conc.) | solubility (pH 7.1, Solubility Conc.) | solubility (pH 7.4, Solubility Conc.) | solubility (pH 7.7, Solubility Conc.) | solubility (pH 7.9, Solubility Conc.) | solubility (pH 6.3, Solubility Conc.) | solubility (pH 6.7, Solubility Conc.) | solubility (pH 7.2, Solubility Conc.) | solubility (pH 7.3, Solubility Conc.) | solubility (pH 7.5, Solubility Conc.) | solubility (pH 6, Solubility Conc.) | solubility (pH 7, Solubility Conc.) | solubility (pH 7.6, Solubility Conc.) | solubility (pH 8.1, Solubility Conc.) | also measured |
| --- | --- | --- | --- | --- | --- | --- | --- | --- | --- | --- | --- | --- | --- | --- | --- | --- |
| CC(=O)N[C@H]1CCC(=O)NCCC[C@@H](C(=O)N2CCC[C@H]2C(=O)N2CCC[C@H]2C(=O)N[C@@H](CCCNC(=N)N)C(=O)N[C@@H](CC(=O)O)C(=O)N[C@@H](CCCCN(CC(=O)O)CC(=O)O)C(=O)N[C@@H](CCCCNC(=O)COCCOCCNC(=O)CCCCCCCCCCCCCCC(=O)O)C(N)=O)NC(=O)[C@H](Cc2c[nH]c3ccccc23)NC(=O)[C@H](CCCNC(=N)N)NC(=O)[C@@H](Cc2ccccc2)NC(=O)[C@H](Cc2cnc[nH]2)NC1=O [Example 18, Ac-c[Glu-His-D-Phe-Arg-Trp-Orn]-Pro-Pro-Arg-Asp-Lys(biscarboxymethyl)-Lys({2-[2-(15-carboxypentadecanoylamino)ethoxy]ethoxy}acetyl)-NH2] (Ac-EH[dF]RW[Orn]PPRD[Lys(CH2CO2H)2]K([AEEA-C16 diacid])-NH2; lactam 1-6) | 326 µM (≈ 705 µg/mL) | 392 µM (≈ 848 µg/mL) | 484 µM (≈ 1050 µg/mL) | 449 µM (≈ 971 µg/mL) | 451 µM (≈ 975 µg/mL) | 474 µM (≈ 1030 µg/mL) | – | – | – | – | – | – | – | – | – | solubility (pH 5.3, Solubility Conc.): 193 µM (≈ 417 µg/mL); solubility (pH 6.1, Solubility Conc.): 310 µM (≈ 670 µg/mL); solubility (pH 6.8, Solubility Conc.): 447 µM (≈ 967 µg/mL) |
| CC(=O)N[C@H]1CCCNC(=O)C[C@@H](C(=O)N2CCC[C@H]2C(=O)N2CCC[C@H]2C(=O)N[C@@H](CCCNC(=N)N)C(=O)N[C@@H](CCC(=O)O)C(=O)N[C@@H](CCCCN(CC(=O)O)CC(=O)O)C(=O)N[C@@H](CCCCNC(=O)COCCOCCNC(=O)CCCCCCCCCCCCCCCc2nnn[nH]2)C(N)=O)NC(=O)[C@H](Cc2c[nH]c3ccccc23)NC(=O)[C@H](CCCNC(=N)N)NC(=O)[C@@H](Cc2ccccc2)NC(=O)[C@H](Cc2c[nH]cn2)NC1=O [Example 19, Ac-c[Orn-His-D-Phe-Arg-Trp-Asp]-Pro-Pro-Arg-Glu-Lys(biscarboxymethyl)-Lys[(2-{2-[16-(tetrazol-5-yl)hexadecanoylamino]ethoxy}ethoxy)acetyl]-NH2] (Ac-[Orn]H[dF]RWDPPRE[Lys(CH2CO2H)2]K([AEEA-Palmitoyl(16-(5-tetrazolyl))])-NH2; lactam 1-6) | – | – | – | – | 517 µM (≈ 1140 µg/mL) | 441 µM (≈ 970 µg/mL) | 26 µM (≈ 57.2 µg/mL) | 38 µM (≈ 83.6 µg/mL) | 433 µM (≈ 953 µg/mL) | 447 µM (≈ 984 µg/mL) | 474 µM (≈ 1040 µg/mL) | – | – | – | – | solubility (pH 6.9, Solubility Conc.): 70 µM (≈ 154 µg/mL) |
| CC(=O)N[C@H]1CCNC(=O)C[C@@H](C(=O)N2CCC[C@H]2C(=O)N2CCC[C@H]2C(=O)N[C@@H](CCCNC(=N)N)C(=O)N[C@@H](CC(=O)O)C(=O)N[C@@H](CCCCN(CC(=O)O)CC(=O)O)C(=O)N[C@@H](CCCCNC(=O)COCCOCCNC(=O)CCCCCCCCCCCCCCCc2nnn[nH]2)C(N)=O)NC(=O)[C@H](Cc2c[nH]c3ccccc23)NC(=O)[C@H](CCCNC(=N)N)NC(=O)[C@@H](Cc2ccccc2)NC(=O)[C@H](Cc2c[nH]cn2)NC1=O [Example 25, Ac-c[Dab-His-D-Phe-Arg-Trp-Asp]-Pro-Pro-Arg-Asp-Lys(biscarboxymethyl)-Lys[(2-{2-[16-(tetrazol-5-yl)hexadecanoylamino]ethoxy}ethoxy)acetyl]-NH2] (Ac-[Dab]H[dF]RWDPPRD[Lys(CH2CO2H)2]K([AEEA-Palmitoyl(16-(5-tetrazolyl))])-NH2; lactam 1-6) | – | – | – | 472 µM (≈ 1030 µg/mL) | 471 µM (≈ 1020 µg/mL) | – | 34 µM (≈ 73.9 µg/mL) | – | – | 439 µM (≈ 954 µg/mL) | 479 µM (≈ 1040 µg/mL) | 24 µM (≈ 52.1 µg/mL) | 133 µM (≈ 289 µg/mL) | – | – | solubility (pH 8, Solubility Conc.): 498 µM (≈ 1080 µg/mL) |
| CC(=O)N[C@H]1CC(=O)NCC[C@@H](C(=O)N2CCC[C@H]2C(=O)N2CCC[C@H]2C(=O)N[C@@H](CCCNC(=N)N)C(=O)N[C@@H](CC(=O)O)C(=O)N[C@@H](CCCCN(CC(=O)O)CC(=O)O)C(=O)N[C@@H](CCCCNC(=O)COCCOCCNC(=O)CCCCCCCCCCCCCCCc2nnn[nH]2)C(N)=O)NC(=O)[C@H](Cc2c[nH]c3ccccc23)NC(=O)[C@H](CCCNC(=N)N)NC(=O)[C@@H](Cc2ccccc2)NC(=O)[C@H](Cc2c[nH]cn2)NC1=O [Example 30, Ac-c[Asp-His-D-Phe-Arg-Trp-Dab]-Pro-Pro-Arg-Asp-Lys(biscarboxymethyl)-Lys[(2-{2-[16-(tetrazol-5-yl)hexadecanoylamino]ethoxy}ethoxy)acetyl]-NH2] (Ac-DH[dF]RW[Dab]PPRD[Lys(CH2CO2H)2]K([AEEA-Palmitoyl(16-(5-tetrazolyl))])-NH2; lactam 1-6) | 37 µM (≈ 80.4 µg/mL) | – | – | – | – | 497 µM (≈ 1080 µg/mL) | – | – | – | 377 µM (≈ 819 µg/mL) | 478 µM (≈ 1040 µg/mL) | – | 144 µM (≈ 313 µg/mL) | 493 µM (≈ 1070 µg/mL) | – | solubility (pH 5.9, Solubility Conc.): 24 µM (≈ 52.1 µg/mL) |
| CC(=O)N[C@H]1CNC(=O)C[C@@H](C(=O)N2CCC[C@H]2C(=O)N2CCC[C@H]2C(=O)N[C@@H](CCCNC(=N)N)C(=O)N[C@@H](CC(=O)O)C(=O)N[C@@H](CCCCN(CC(=O)O)CC(=O)O)C(=O)N[C@@H](CCCCNC(=O)COCCOCCNC(=O)CCCCCCCCCCCCCCCc2nnn[nH]2)C(N)=O)NC(=O)[C@H](Cc2c[nH]c3ccccc23)NC(=O)[C@H](CCCNC(=N)N)NC(=O)[C@@H](Cc2ccccc2)NC(=O)[C@H](Cc2c[nH]cn2)NC1=O [Example 36, Ac-c[Dap-His-D-Phe-Arg-Trp-Asp]-Pro-Pro-Arg-Asp-Lys(biscarboxymethyl)-Lys[(2-{2-[16-(tetrazol-5-yl)hexadecanoylamino]ethoxy}ethoxy)acetyl]-NH2] (Ac-[Dap]H[dF]RWDPPRD[Lys(CH2CO2H)2]K([AEEA-Palmitoyl(16-(5-tetrazolyl))])-NH2; lactam 1-6) | – | 28 µM (≈ 60.4 µg/mL) | 87 µM (≈ 188 µg/mL) | 261 µM (≈ 563 µg/mL) | – | 514 µM (≈ 1110 µg/mL) | – | – | – | – | 488 µM (≈ 1050 µg/mL) | 18 µM (≈ 38.9 µg/mL) | – | 504 µM (≈ 1090 µg/mL) | 505 µM (≈ 1090 µg/mL) | solubility (pH 5.7, Solubility Conc.): 17 µM (≈ 36.7 µg/mL) |
| CC(=O)N[C@H]1CCCNC(=O)C[C@@H](C(=O)N2CCC[C@H]2C(=O)N2CCC[C@H]2C(=O)N[C@@H](CCCNC(=N)N)C(=O)N[C@@H](CCC(=O)O)C(=O)N[C@@H](CCCCN(CC(=O)O)CC(=O)O)C(=O)N[C@@H](CCCCNC(=O)COCCOCCNC(=O)CCCCCCCCCCCCCCC(=O)O)C(N)=O)NC(=O)[C@H](Cc2c[nH]c3ccccc23)NC(=O)[C@H](CCCNC(=N)N)NC(=O)[C@@H](Cc2ccccc2)NC(=O)[C@H](Cc2c[nH]cn2)NC1=O [Example 42, Ac-c[Orn-His-D-Phe-Arg-Trp-Asp]-Pro-Pro-Arg-Glu-Lys(biscarboxymethyl)-Lys({2-[2-(15-carboxypentadecanoylamino)ethoxy]ethoxy}acetyl)-NH2] (Ac-[Orn]H[dF]RWDPPRE[Lys(CH2CO2H)2]K([AEEA-C16 diacid])-NH2; lactam 1-6) | 364 µM (≈ 787 µg/mL) | – | – | – | – | 476 µM (≈ 1030 µg/mL) | – | 421 µM (≈ 910 µg/mL) | 438 µM (≈ 947 µg/mL) | – | 441 µM (≈ 954 µg/mL) | – | 449 µM (≈ 971 µg/mL) | – | 417 µM (≈ 902 µg/mL) | solubility (pH 4.9, Solubility Conc.): 153 µM (≈ 331 µg/mL); solubility (pH 5.8, Solubility Conc.): 240 µM (≈ 519 µg/mL) |
